Measurements taken from US5574043A, “Certain [1,2,5-thiadiazol-4-yl]-1-azabicyclo [3.2.1]octane derivatives and their pharmaceutical uses” (Novo Nordisk A/S, priority 1995, dated 1996).
Where a name gives a salt, the structure may show the parent alone.

Target: muscarinic acetylcholine receptors
Assay: Inhibition of specific binding of 3H-Oxotremorine-M (OXO BINDING) in vitro, rat cortex
Set-up: species or system male Wistar rats
Settings: rat cortex homogenate, 3H-Oxotremorine 1.0 nM, 30 min at 25° C., pH 7.4
Source text: The pharmacological properties of the compounds of the invention can be illustrated by determining their capability to inhibit the specific binding of ^3 H-Oxotremorine-M (^3 H-Oxo). Birdsdall N. J. M., Hulme E. C., and Burgen A. S. V. (1980). "The Character of Muscarinic Receptors in Different Regions of the Rat Brain". Proc. Roy. Soc. London (Series B) 207,1.
^3 H-Oxo labels muscarinic receptor in the CNS (with a preference for agonist domains of the receptors). Three different sites are labelled by ^3 H-Oxo. […] Using the present experimental conditions only the high and medium affinity sites are determined.
The inhibitory effects of compounds on ^3 H-Oxo binding reflects the affinity for muscarinic acetylcholine receptors.
All preparations are performed at 0°-4° C. unless otherwise indicated. Fresh cortex (0.1-1 g) from male Wistar rats (150-250 g) is homogenized for 5-10 s in 10 ml 20 mM Hepes pH: 7.4, with an Ultra-Turrax homogenizer. The homogenizer, is rinsed with 10 ml of buffer and the combined suspension centrifuged for 15 min at 40,000×g. The pellet is washed three times with buffer. In each step the pellet is homogenized as before in 2×10 ml of buffer and centrifuged for 10 min at 40,000×g.
The final pellet is homogenized in 20 mM Hepes pH: 7.4 (100 ml per g of original tissue) and used for binding assay. Aliquots of 0.5 ml is added 25 μl of test solution and 25 μl of ^3 H-Oxotremorine (1.0 nM, final concentration) mixed and incubated for 30 min at 25° C. Non-specific binding is determined in triplicate using arecoline (1 μg/ml, final concentration) as the test substance. After incubation samples are added 5 ml of ice-cold buffer and poured directly onto Whatman GF/C glass fibre filters under suction and immediately washed 2 times with 5 ml of ice-cold buffer. The amount of radioactivity on the filters are determined by conventional liquid scintillation counting. Specific binding is total binding minus non specific binding.
Test substances are dissolved in 10 ml water (if necessary heated on a steam bath for less than 5 minutes) at a concentration of 2.2 mg/ml.
The test value will be given as IC50 (the concentration (ng/ml) of the test substance which inhibits the specific binding of ^3 H-Oxo by 50%).
IC50 =(applied test substance concentration) [formula] where Co is specific binding in control assays and Cx is the specific binding in the test assay. (The calculations assume normal mass-action kinetics).

SMILES	Inhibition in vitro OXO BINDING IC50
Clc1nsnc1[C@H]1CN2CC[C@@H]1C2 (relative stereo) [Compound 22, Endo-3-(3-chloro-1,2,5-thiadiazol-4-yl)-1-azabicyclo[2.2.1]heptane oxalate]	3.4 ng/mL
CCCCCCSc1nsnc1C12CCCN(CC1)C2.O=C(O)C(=O)O (stereo not drawn) [Compound 68, 5-(3-Hexylthio-1,2,5-thiadiazol-4-yl)-1-azabicyclo[3.2.1]octane oxalate]	0.69 ng/mL
COc1nsnc1C1(OC)CN2CCC1CC2.O=C(O)C(=O)O (stereo not drawn) [Compound 3, 3-Methoxy-3-(3-methoxy-1,2,5-thiadiazol-4-yl)-1-azabicyclo[2.2.2]octane oxalate]	208 ng/mL
CCSc1nsnc1C1CN2CCC1CC2.O=C(O)C(=O)O (stereo not drawn) [Compound 52, 3-(3-Ethylthio-1,2,5-thiadiazol-4-yl)-1-azabicyclo[2.2.2]octane oxalate]	0.61 ng/mL
FC(F)(F)CCCSc1nsnc1[C@@H]1CN2CCC[C@@H]1C2 (single isomer, unassigned) [Compound 130, (+)-Exo-6-(3-(4,4,4-trifluoro-1-butylthio)-1,2,5-thiadiazol-4-yl)-1-azabicyclo[3.2.1]octane oxalate]	0.60 ng/mL
c1csc(CCCSc2nsnc2C2CN3CCC2CC3)c1 (stereo not drawn) [Compound 104, 3-(3-(3-(2-Thienyl)propylthio)-1,2,5-thiadiazol-4-yl)-1-azabicyclo[2.2.2]fumarate]	0.85 ng/mL
c1ccc(OCCSc2nsnc2[C@@H]2CN3CCC[C@H]2C3)cc1 (relative stereo) [Compound 84, Endo-6-(3-(2-phenoxyethylthio)-1,2,5-thiadiazol-4-yl)-1-azabicyclo[3.2.1]octane oxalate]	13 ng/mL
c1ccc(CCCSc2nsnc2[C@H]2CN3CC[C@H]2C3)cc1 (relative stereo) [Compound 41, Exo-3-(3-(3-phenylpropylthio)-1,2,5-thiadiazol-4-yl)-1-azabicyclo[2.2.1]heptane oxalate]	0.56 ng/mL
CCSc1nsnc1[C@H]1CN2CCC[C@@H]1C2 (relative stereo) [Compound 25, Endo-6-(3-ethylthio-1,2,5-thiadiazol-4-yl)-1-azabicyclo[3.2.1]octane oxalate]	1.9 ng/mL
CCC(C)Sc1nsnc1C1CN2CCC1CC2.O=C(O)/C=C/C(=O)O (stereo not drawn) [Compound 100, 3-(3-(1-Methylpropylthio)-1,2,5-thiadiazol-4-yl)-1-azabicyclo[2.2.2]octane fumarate]	0.82 ng/mL
CC(C)CCCSc1nsnc1[C@H]1CN2CCC[C@@H]1C2 (relative stereo) [Compound 87, Endo-6-(3-isohexylthio-1,2,5-thiadiazol-4-yl)-1-azabicyclo[3.2.1]octane oxalate]	10 ng/mL
CCCCCCSc1nsnc1C1CN2CCC1CC2.O=C(O)/C=C/C(=O)O (stereo not drawn) [Compound 14, 3-(3-Hexylthio-1,2,5-thiadiazol-4-yl)-1-azabicyclo[2.2.2]octane fumarate]	4.8 ng/mL
CCOc1nsnc1C1=C(Cl)CC2CCC1N2.O=C(O)C(=O)O (stereo not drawn) [Compound 43, 3-Chloro-2-(3-ethoxy-1,2,5-thiadiazol-4-yl)-8-azabicyclo[3.2.1]oct-2-ene oxalate]	2.33 ng/mL
CCC=CCCOc1nsnc1C1CN2CCC1CC2.O=C(O)/C=C/C(=O)O (stereo not drawn) [Compound 49, 3-(3-(3-Hexenyloxy)-1,2,5-thiadiazol-4-yl)-1-azabicyclo[2.2.2]octane fumarate]	0.33 ng/mL
CCc1ccc(COc2nsnc2C2CN3CCC2CC3)cc1.O=C(O)C(=O)O (stereo not drawn) [Compound 109, 3-(3-(4-Ethylbenzyloxy)-1,2,5-thiadiazol-4-yl)-1-azabicyclo[2.2.2]octane oxalate]	4.0 ng/mL
O=C(O)/C=C/C(=O)O.c1ccc(CCCSc2nsnc2C2CN3CCC2CC3)cc1 (stereo not drawn) [Compound 44, 3-(3-(3-Phenylpropylthio)-1,2,5-thiadiazol-4-yl)-1-azabicyclo[2.2.2]octane fumarate]	4.7 ng/mL
N#CCCCSc1nsnc1[C@H]1CN2CCC[C@@H]1C2 (relative stereo) [Compound 91, Endo-6-(3-(3-cyanopropylthio)-1,2,5-thiadiazol-4-yl)-1-azabicyclo[3.2.1]octane oxalate]	5.2 ng/mL
CSc1nsnc1[C@@H]1CN2CCC[C@H]1C2 (relative stereo) [Compound 85, Endo-6-(3-methylthio-1,2,5-thiadiazol-4-yl)-1-azabicyclo[3.2.1]octane oxalate]	7.2 ng/mL
N#CCCSc1nsnc1[C@H]1CN2CCC[C@@H]1C2 (relative stereo) [Compound 90, Endo-6-(3-(2-cyanoethylthio)-1,2,5-thiadiazol-4-yl)-1-azabicyclo[3.2.1]octane oxalate]	3.3 ng/mL
CCOc1nsnc1[C@@H]1CN2CCC[C@@H]1C2 (relative stereo) [Compound 118, Exo-6-(3-ethoxy-1,2,5-thiadiazol-4-yl)-1-azabicyclo[3.2.1]octane oxalate]	0.35 ng/mL
CCCOc1nsnc1C1CN2CCC1CC2.O=C(O)/C=C/C(=O)O (stereo not drawn) [Compound 10, 3-(3-Propoxy-1,2,5-thiadiazol-4-yl)-1-azabicyclo[2.2.2]octane fumarate]	1.7 ng/mL
c1ccc(CCCSc2nsnc2[C@@H]2CN3CC[C@H]2C3)cc1 (relative stereo) [Compound 35, Endo-3-(3-(3-phenylpropylthio)-1,2,5-thiadiazol-4-yl)-1-azabicyclo[2.2.1]heptane oxalate]	1.9 ng/mL
COc1nsnc1C1=C(Cl)C2CCCN(C1)C2.O=C(O)C(=O)O (stereo not drawn) [Compound 64, 4-Chloro-3-(3-methoxy-1,2,5-thiadiazol-4-yl)-1-azabicyclo[3.3.1]non-3-ene oxalate]	8.2 ng/mL
CCCCCSc1nsnc1[C@H]1CN2CCC[C@@H]1C2 (relative stereo) [Compound 26, Endo-6-(3-pentylthio-1,2,5-thiadiazol-4-yl)-1-azabicyclo[3.2.1]octane oxalate]	1.4 ng/mL
CCCSc1nsnc1[C@H]1CN2CCC[C@@H]1C2 (relative stereo) [Compound 57, Endo-6-(3-propylthio-1,2,5-thiadiazol-4-yl)-1-azabicyclo[3.2.1]octane oxalate]	4.6 ng/mL
COc1nsnc1[C@@H]1CN2CCC[C@@H]1C2 (relative stereo) [Compound 117, Exo-6-(3-methoxy-1,2,5-thiadiazol-4-yl)-1-azabicyclo[3.2.1]octane oxalate]	2.0 ng/mL
CCCCCSc1nsnc1[C@@H]1CN2CC[C@H]1C2 (relative stereo) [Compound 33, Endo-3-(3-pentylthio-1,2,5-thiadiazol-4-yl)-1-azabicyclo[2.2.1]heptane fumarate]	6.4 ng/mL
